How the values were obtained:
[1] = tested on: experimental asthma model (airway resistance); assay: Effect on experimental asthma model in guinea pigs (airway resistance); assay type: in vivo, guinea pigs (male hartley); settings: 50 mg/kg oral (TABLE 6); for inhibition in vivo at 50 mg/kg: Cavia porcellus, po, 0.5 h
[2] = tested on: homologous passive cutaneous anaphylaxis (PCA) reaction; assay: Effect on homologous passive cutaneous anaphylaxis (PCA) reaction in rats; assay type: in vivo, rats (male wistar); settings: 50 mg/kg oral, 1 hour before challenge (TABLE 2); for inhibition in vivo at 50 mg/kg: Rattus norvegicus, po, 0.5 h
Method in brief: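 Male Wistar rats sensitized intradermally with anti-DNP-As serum; 48 h later compound given orally at 50 mg/kg in 0.5% CMCNa. Challenge 1 h post-dose with i.v. TNP-As plus Evans Blue; extravasated dye measured at 30 min, inhibition versus vehicle group, n=5.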

[3] = tested on: contact dermatitis induced by picryl chloride; assay: Effect on contact dermatitis induced by picryl chloride in mice; assay type: in vivo; settings: 50 mg/kg oral, 1 hour before and 16 hours after challenge, 24 hours after challenge; for inhibition in vivo at 50 mg/kg: Mus musculus, po, 24 h, read-out: Inhibition (%) against the increase of ear thickness
Method in brief: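 Mice sensitized on shaved abdomen with 7 mg picryl chloride in acetone, challenged 7 days later with 1% picryl chloride in olive oil on left ear. Compounds given orally at 50 mg/kg in 0.5% CMCNa 1 h before and 16 h after challenge. Ear thickness increase at 24 h vs pre-challenge; inhibition % relative to vehicle.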

Row | Compound | inhibition in vivo at 50 mg/kg [1] [%] | inhibition in vivo at 50 mg/kg [2] [%] | inhibition in vivo at 50 mg/kg [3] [%] | Inhibition (%) of the airway resistance [1] [%] | Inhibition (%) of PCA reaction [2] [%] | Inhibition (%) against the increase of ear thickness [3] [%]
1 | CCC=CCCOc1c(O)c(=O)oc2cc(O[C@H]3O[C@H](CO)[C@@H](O)[C@H](O)[C@@H]3O)ccc12 [compound 138] | 50.8 | 42.5 | 44.7 | – | – | –
2 | CC(C)=CCC/C(C)=C/COc1c(O)c(=O)oc2cc(O[C@H]3O[C@H](CO)[C@@H](O)[C@H](O)[C@@H]3O)ccc12 [compound 139] | 47.2 | 41.8 | 42.1 | – | – | –
3 | O=c1oc2cc(O[C@H]3O[C@H](CO)[C@@H](O)[C@H](O)[C@@H]3O)ccc2c(OCc2ccccc2)c1O [compound 140] | 45.1 | 40.4 | 40.1 | – | – | –
4 | CC(=O)Oc1c(OC(C)C)c2ccc(O[C@@H]3O[C@H](COCc4ccccc4)[C@@H](OCc4ccccc4)[C@H](OCc4ccccc4)[C@H]3OCc3ccccc3)cc2oc1=O [compound 145] | 41.9 | 40.2 | 42.1 | – | – | –
5 | O=c1oc2cc(O[C@@H]3O[C@H](CO)[C@@H](O)[C@H](O)[C@H]3O)ccc2c(O)c1O [compound 151] | – | – | – | 49.7 | 45.4 | 46.5
6 | O=c1oc2cc(O[C@@H]3O[C@H](CO)[C@@H](O)[C@H](O)[C@H]3O)ccc2c(OCc2ccccc2)c1O [compound 152] | 52.4 | 41.3 | 43.2 | – | – | –
7 | COc1c(O)c(=O)oc2cc(O[C@@H]3O[C@H](CO)[C@@H](O)[C@H](O)[C@H]3O)ccc12 [compound 153] | – | – | – | 54.3 | 42.4 | 44.7
8 | CCCCCCCCCCOc1c(O)c(=O)oc2cc(O[C@@H]3O[C@H](CO)[C@@H](O)[C@H](O)[C@H]3O)ccc12 [compound 154] | – | – | – | 59.2 | 43.2 | 41.6
9 | CCCCCCCCCCCCOc1c(O)c(=O)oc2cc(O[C@@H]3O[C@H](CO)[C@@H](O)[C@H](O)[C@H]3O)ccc12 [compound 155] | – | – | – | 57.6 | 42.9 | 40.9
10 | CC(C)Oc1c(O)c(=O)oc2cc(O[C@@H]3O[C@H](CO)[C@@H](O)[C@H](O)[C@H]3O)ccc12 [compound 156] | – | – | – | 48.2 | 42.1 | 43.2
11 | C=COc1c(O)c(=O)oc2cc(O[C@@H]3O[C@H](CO)[C@@H](O)[C@H](O)[C@H]3O)ccc12 [compound 158] | – | – | – | 42.3 | 44.3 | 48.2
12 | CC(C)=CCC/C(C)=C/COc1c(O)c(=O)oc2cc(O[C@@H]3O[C@H](CO)[C@@H](O)[C@H](O)[C@H]3O)ccc12 [compound 160] | – | – | – | 58.9 | 43.9 | 46.7
